One data set has as its system Huh-7 cells. Kind of data set: Release of active metabolite in Huh-7 cells. The format is in vitro ADME, human. Conditions: 10 μM test compound. The method, then:
Assay for the Release of Active Metabolite in Huh-7 Cells. Huh-7 cells were plated in 1 mL culture medium (DMEM, containing glucose, L-glutamine and sodium pyruvate, 10% FBS, 100 IU/mL penicillin, 100 μg/mL streptomycin, 2 mM GlutaMAX, 1% MEM non-essential amino acids) at the concentration 0.8, 0.4 and 0.2 million cells per well on 6 well plates for 24, 48 and 72 hr treatment, respectively. Plated cells were incubated overnight at 37° C. in an incubator.
The following morning test compound was diluted to 20 μM from a stock solution in DMSO in fresh culture medium pre-warmed to 37° C. and 1 mL of the solution/well was added to cells. A final medium volume per well was 2.0 mL, test compound concentration in well was 10 μM and final DMSO concentration was 0.1%.
After 24, 48 or 72 hr, the medium was carefully removed and cell monolayers were washed twice with 2 mL ice-cold PBS per well. Following the last wash, all PBS was carefully removed and 1.0 mL of extraction solution (ice-cold 70% methanol) added. The plate was tightly covered with Parafilm, plastic plate cover and Parafilm again and an intracellular content was extracted at −20° C. for 24 hr.
After 24 hr extracts were transferred into polypropylene microfuge tubes and dry on a refrigerated centrivap concentrator. Dry residues were reconstituted in 250 μL of HPLC-grade water and centrifuged at 16,000×g for 10 min. Aliquots (100 μL each) of the supernatants were transferred into a 96 well plate and internal standard (4 ng/mL final concentration) was added as the internal standard (IS) for LC-MS/MS analysis.

A short description of data set [1]: Plasma and liver pharmacokinetics following a single oral dose in CD-1 mice. The format is in vivo. Conditions: CD-1 male mice; for Ms Liver 2′-MeGTP AUC (pmol · hr/g at 1 μmol/kg): single oral dose 25 mg/kg in PEG 200, liver 2′-MeGTP; for Ms Plasma 2′-MeG AUC (pmol · hr/mL at 1 μmol/kg) / Ms Plasma 2′-MeG Cmax (pmol/mL at 1 μmol/kg): single oral dose 25 mg/kg in PEG 200, plasma 2′-MeG. The method, then:
Plasma samples were analyzed for 2′-methylguanosine (2′-MeG) by LC-MS/MS. The internal standard (IS) was 2′-MeG-D3. For protein precipitation and extraction, each plasma sample (50 μL) was treated with 500 μL of 0.2% formic acid in acetonitrile and 20 μL of the internal standard working solution. After vortexing and centrifugation, 500 μL of the sample extracts were transferred to a new plate, dried under N2 at ˜28° C. and reconstituted with 75 μL of 0.2% FA in water. The extracts were chromatographed on an Aquasil C18 column using a gradient system of 0.2% formic acid in water and acetonitrile. The analytes were detected and quantified by tandem mass spectrometry in positive ion mode on an MDS Sciex API5000 equipped with a Turbo Ionspray® interface. The calibration range was 0.500 (LLOQ) to 200 ng/mL in mouse plasma. The corresponding range for molar units is 1.68 to 673 pmol/mL.
Liver samples were analyzed for the active species 2′-methylguanosine triphosphate (2′-MeGTP) by LC-MS/MS. […] Internal standard solution was added to the homogenate followed by neutralization with 20% ammonium hydroxide solution and addition of 500 μL 1% formic acid. The tissue samples were extracted by weak anion exchange solid phase extraction (SPE). Post extraction, the eluates were evaporated under nitrogen, followed by reconstitution before injection onto the LC-MS/MS system. […] The calibration range was 10 to 10000 pmol/mL in mouse liver homogenate (50 to 50000 pmol/g of mouse liver).

A short description of data set [2]: Stability in simulated gastric fluid. It is filed as in vitro ADME. Conditions: 100 μM, 2 hours at 37° C.; percent of peak area at time zero. As for the experimental part: (§1) Stability in Simulated Gastric and Intestinal Fluids: Simulated gastric and intestinal fluids containing pepsin and pancreatin respectively were prepared according to the U.S. Pharmacopoeia USP291 procedure (www.pharmacopeia.cn/v29240/usp29nf24s0_ris1s126.html). Test compound (final concentration 100 μM) was incubated in duplicate in the appropriate fluid for 2 hours at 37° C. The samples were quenched with 200 μl cold acetonitrile, vortexed for 30 seconds and then centrifuged at 16,100 g for 10 min. The supernatants were analyzed by HPLC on a C-18 column with UV detection at 252 nm. The time 0 samples were prepared by adding SGF or SIF fluid to the quenching solvent followed by the test compound. Stability of the compound was determined by peak area the test compound after incubation and calculated as percent of the peak area observed at time zero.

The nature of data set [3]: Stability in human intestinal S9 (HIS9). It is filed as in vitro ADME. Conditions: 10 μM, 1.0 mg/mL protein, NADPH, 60 min; percent unchanged. As for the experimental part: Stability in Liver and Intestinal Subcellular Fractions: Stability of test compounds were determined in subcellular fractions (microsomes and S9) of human liver and intestine in duplicate for each matrix. Pooled liver and intestinal microsomal, intestinal and liver S9 proteins (1.0 mg/mL), suspended in incubation buffer (100 mM potassium phosphate, pH 7.4, 5 mM MgCl2, and 0.1 mM EDTA), were preincubated for 5 min at 37° C. with 10 μM of a test compound from a 10 mM stock solution in DMSO (final DMSO concentration was 0.1%); the reaction was initiated by the addition of NADPH (3 mM final concentration). At specific times (0 and 60 min), 0.1 mL samples were taken and the reaction terminated by the addition of 4 volumes of stop solution (acetonitrile with 500 ng/mL carbutamide as an internal standard). The samples were vortexed for 30 sec and then centrifuged at 16,000 g for 10 min. 100 μL of supernatants were transferred to 96 deep-well plates preloaded with 100 μL distilled water and analyzed after mixing by LC-MS/MS. The MS peak area ratio of the test compound versus the internal standard was calculated and percent unchanged test compound over 60 minutes was calculated using this ratio.

A further data set can be described thus: Stability in mouse blood. It is filed as in vitro ADME. Conditions: on ice, percent unchanged test compound. The method, then:
Stability in Fresh Whole Blood: Stability of test compounds were determined in fresh human whole blood with K2EDTA as the anticoagulant (stored refrigerated at 2-8° C. and used within 7 days of receipt). The experiment was conducted with three replicates for each time point. Whole blood, pre-incubated at 37° C. for 10-15 minutes, was fortified with a solution of test compound for a final concentration of 0.5 μM and mixed for 30 sec. At intervals (0, 0.5, 1 and 2 hr), three 50-μL aliquots were combined with 200 μL (each) of an ice-cold solution of the internal standard (carbutamide 500 ng/mL in acetonitrile). The samples were vortexed for 30 sec and then centrifuged at 16,100 g for 5 min. The supernatant was analyzed by LC-MS/MS. The MS peak area ratio of the test compound versus the internal standard was calculated and percent unchanged test compound was calculated for each time point using this ratio.
The stability in mouse blood was determined on ice at 0, 0.5 and 1 hr as above.

The nature of data set [4]: Cytotoxicity evaluation (CellTiter-Blue Cell Viability Assay). The format is cell-based, human. Conditions: human, Zluc cells, read-out: HCV Replicon CC50. In general terms: Resazurin is reduced to fluorescent resorufin, in cell work by metabolically active cells.
Data set [5] is described as follows: Stability in simulated intestinal fluid. Conditions: 100 μM, 2 hours at 37° C.; percent of peak area at time zero. The format is in vitro ADME. The method, then:
as §1

Another data set relates to Zluc cells. Briefly: Cytotoxicity evaluation (CellTiter-Blue Cell Viability Assay). Conditions: read-out: HCV Replicon CC50. It is filed as cell-based, human.

The term CC50 denotes the concentration giving 50% cytotoxicity. As for `CCOc1nc(N)nc2c1ncn2[C@@H]1O[C@@H]2COP(=O)(N[C@@H](C)C(=O)OC(C)C)O[C@H]2[C@@]1(C)F` (single isomer, unassigned) [Compound 1 Diastereomer 1], the “Huh-7 TP Cmax (pmol/mill cells)” value in the data set with Huh-7 cells was 283 pmol/mill cells. For the same molecule, in data set [1], the “Ms Liver 2′-MeGTP AUC (pmol · hr/g at 1 μmol/kg)” value is reported as 2400 pmol · hr/g at 1 μmol/kg, the “Ms Plasma 2′-MeG AUC (pmol · hr/mL at 1 μmol/kg)” value is reported as 110 pmol · hr/mL at 1 μmol/kg and the “Ms Plasma 2′-MeG Cmax (pmol/mL at 1 μmol/kg)” value is given as 14 pmol/mL at 1 μmol/kg. In addition, in data set [2], the “Stability SGF” value is 87%. Also, the “Stability HIS9 (1 hr)” value in data set [3] is 84%. The “Stability WB_Mouse (ice; 1 hr)” value in the data set “Stability in mouse blood” was determined as 92%. Besides, in data set [4], the CC50 is over 50 µM. Besides, the “Stability SIF” value in data set [5] is listed as 83%.

Regarding `CCOc1nc(N)nc2c1ncn2[C@@H]1O[C@@H]2COP(=O)(N[C@@H](C)C(=O)OC(C)C)O[C@H]2[C@@]1(C)F` (single isomer, unassigned) [Compound 1 Diastereomer 2], in data set [1], the “Ms Liver 2′-MeGTP AUC (pmol · hr/g at 1 μmol/kg)” value came to 810 pmol · hr/g at 1 μmol/kg, the “Ms Plasma 2′-MeG AUC (pmol · hr/mL at 1 μmol/kg)” value is 92 pmol · hr/mL at 1 μmol/kg and the “Ms Plasma 2′-MeG Cmax (pmol/mL at 1 μmol/kg)” value amounted to 9.8 pmol/mL at 1 μmol/kg. Moreover, the “Stability SGF” value in data set [2] is 83%. Besides, in data set [3], the “Stability HIS9 (1 hr)” value is 96%. The “Stability WB_Mouse (ice; 1 hr)” value in the data set “Stability in mouse blood” is listed as 36%. In addition, in the data set with Zluc cells, the CC50 was over 50 µM. The “Stability SIF” value in data set [5] was 2%.

The values are drawn from patent US9109001B2, “3′,5′-cyclic phosphoramidate prodrugs for HCV infection” (priority 2012, dated 2015).
